Columns and labels:
[1] = tested on: ORYSAT (Rice, Tebonnet); experiment: Postemergence herbicidal evaluation; assay type: in vivo, Oryza sativa, (L.) Tebonnet
In short: (§1)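 Seedlings grown about two weeks were sprayed at 40 psi with compound dispersed in 50/50 acetone/water plus 0.5% TWEEN 20, at about 0.0156 to 0.500 kg/ha. Plants were kept in the greenhouse and scored 4–5 weeks later on a 0–9 visual scale against untreated controls.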

[2] = tested on: MOOVA (Monochoria); experiment: Preemergence weed control under flooded paddy conditions; assay type: in vivo, Monochoria vaginalis; conditions: rated 3-4 weeks after treatment
In short: (§2)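 Silt loam, seeds in top 0.5 cm; flood held 1.5-3 cm; test cpd as acetone/water 50/50 into flood water, ~0.0313-0.500 kg/ha a.i.; greenhouse 3-4 wk; visual 0-9 score vs control.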

[3] = tested on: CYPSE (Flatsedge); experiment: Postemergence weed control under flooded paddy conditions; assay type: in vivo, Cyperus serotinus; conditions: postemergence weeds, 3-4 weeks after treatment
From the text: (§3) Results of herbicide evaluation are expressed on a rating scale (0-9). The scale is based upon a visual observation of plant stand, vigor, malformation, size, chlorosis and overall plant appearance as compared with a control.
(§4) Plastic containers containing weeds which are 3 to 5 cm tall and rice seedlings at the 1.5 to 2.5 leaf stage are flooded with water. The water is maintained at 1.5 to 3 cm above the soil surface for the duration of the experiment. Test compounds are applied as aqueous/ acetone mixtures 50/50 v/v directly into the flood water to provide the equivalent of about 0.0313 to 0.500 kg/ha of active ingredient. The treated containers are placed on greenhouse benches and cared for in accordance with conventional greenhouse procedures. Three to four weeks after treatment, the test is terminated and each container is examined and herbicidal effect rated according to the rating system provided in Example 37. The compounds evaluated are reported by compound number given in Example 37.

[4] = tested on: GALAP (Galium); experiment: Postemergence herbicidal evaluation; assay type: in vivo, Galium aparine
In short: as §1

[5] = tested on: GLXMAW (Soybean, Williams); experiment: Preemergence herbicidal evaluation; assay type: in vivo, Glycine max, (L.) Merr. cv Williams; conditions: rated 4-5 weeks after treatment
In short: (§5)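 Herbicidal effect scored visually, 0-9, at 4 to 5 weeks against a control; compound applied preemergence by aqueous acetone spray to seeded soil at about 0.0156 to 0.500 kg/ha.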

[6] = tested on: ZEAMX (Corn, Field); experiment: Postemergence herbicidal evaluation; assay type: in vivo, Zea mays
In short: as §1

[7] = tested on: ORYSAT (Rice, Tebonnet); experiment: Preemergence herbicidal evaluation; assay type: in vivo, Oryza sativa, (L.) Tebonnet; conditions: rated 4-5 weeks after treatment
In short: as §5

[8] = tested on: CYPIR (Rice Flatsedge); experiment: Postemergence weed control under flooded paddy conditions; assay type: in vivo, Cyperus iria; conditions: postemergence weeds, 3-4 weeks after treatment
From the text: as §3, §4

[9] = tested on: CASOB (Sicklepod); experiment: Postemergence herbicidal evaluation; assay type: in vivo, Cassia obtusifolia
In short: as §1

[10] = tested on: CYPSE (Flatsedge); experiment: Preemergence weed control under flooded paddy conditions; assay type: in vivo, Cyperus serotinus; conditions: rated 3-4 weeks after treatment
In short: as §2

[11] = tested on: CHEAL (Lambsquarters, Common); experiment: Postemergence herbicidal evaluation; assay type: in vivo, Chenopodium album
In short: as §1

[12] = tested on: AMBEL (Ragweed, Common); experiment: Preemergence herbicidal evaluation; assay type: in vivo, Ambrosia artemisifolia; conditions: rated 4-5 weeks after treatment
In short: as §5

[13] = tested on: SETVI (Foxtail, Green); experiment: Preemergence herbicidal evaluation; assay type: in vivo, Setaria viridis; conditions: rated 4-5 weeks after treatment
In short: as §5

C=CCN1C(=O)C(CC(=O)Nc2ccccc2)SC1=Nc1cc(-n2c(=O)cc(C(F)(F)F)n(C)c2=O)c(F)cc1Cl (stereo not drawn) [Compound 44, 3-Allyl-2-{{2-chloro-5-[3,6-dihydro-3-methyl-2,6-dioxo-4-(trifluoromethyl)-1(2H)-pyrimidinyl]-4-fluorophenyl}imino}-4-oxo-5-thiazolidineacetanilide]
Postemergence herbicidal rating ORYSAT ([1]; Rate 0.0156 kg/ha): 3.0 | Postemergence herbicidal rating ORYSAT ([1]; Rate 0.0313 kg/ha): 4.0 | Postemergence herbicidal rating ORYSAT ([1]; Rate 0.0625 kg/ha): 4.0 | Postemergence herbicidal rating ORYSAT ([1]; Rate 0.1250 kg/ha): 4.0 | Herbicidal rating MOOVA ([2]; 0.0313 kg/ha): 4.0 | Herbicidal rating MOOVA ([2]; 0.0625 kg/ha): 4.0 | Herbicidal rating MOOVA ([2]; 0.1250 kg/ha): 7.0 | Herbicidal rating MOOVA ([2]; 0.2500 kg/ha): 9.0 | Herbicidal rating CYPSE ([3]; rate 0.0313 kg/ha): 0.0 | Herbicidal rating CYPSE ([3]; rate 0.0625 kg/ha): 0.0 | Herbicidal rating CYPSE ([3]; rate 0.1250 kg/ha): 0.0 | Herbicidal rating CYPSE ([3]; rate 0.2500 kg/ha): 0.0 | Postemergence herbicidal rating GALAP ([4]; Rate 0.0156 kg/ha): 0.0 | Postemergence herbicidal rating GALAP ([4]; Rate 0.0313 kg/ha): 1.0 | Postemergence herbicidal rating GALAP ([4]; Rate 0.0625 kg/ha): 1.0 | Postemergence herbicidal rating GALAP ([4]; Rate 0.1250 kg/ha): 1.0 | Preemergence herbicidal rating GLXMAW ([5]; rate 0.0156 kg/ha): 0.0 | Preemergence herbicidal rating GLXMAW ([5]; rate 0.0313 kg/ha): 0.0 | Preemergence herbicidal rating GLXMAW ([5]; rate 0.0625 kg/ha): 0.0 | Preemergence herbicidal rating GLXMAW ([5]; rate 0.1250 kg/ha): 0.0 | Preemergence herbicidal rating GLXMAW ([5]; rate 0.2500 kg/ha): 0.0 | Preemergence herbicidal rating GLXMAW ([5]; rate 0.5000 kg/ha): 0.0 | Postemergence herbicidal rating ZEAMX ([6]; Rate 0.0156 kg/ha): 5.0 | Postemergence herbicidal rating ZEAMX ([6]; Rate 0.0313 kg/ha): 5.0 | Postemergence herbicidal rating ZEAMX ([6]; Rate 0.0625 kg/ha): 5.0 | Postemergence herbicidal rating ZEAMX ([6]; Rate 0.1250 kg/ha): 5.0 | Preemergence herbicidal rating ORYSAT ([7]; rate 0.0156 kg/ha): 0.0 | Preemergence herbicidal rating ORYSAT ([7]; rate 0.0313 kg/ha): 0.0 | Preemergence herbicidal rating ORYSAT ([7]; rate 0.0625 kg/ha): 0.0 | Preemergence herbicidal rating ORYSAT ([7]; rate 0.1250 kg/ha): 0.0 | Preemergence herbicidal rating ORYSAT ([7]; rate 0.2500 kg/ha): 0.0 | Preemergence herbicidal rating ORYSAT ([7]; rate 0.5000 kg/ha): 0.0 | Herbicidal rating CYPIR ([8]; rate 0.0313 kg/ha): 5.0 | Herbicidal rating CYPIR ([8]; rate 0.0625 kg/ha): 6.0 | Herbicidal rating CYPIR ([8]; rate 0.1250 kg/ha): 6.0 | Herbicidal rating CYPIR ([8]; rate 0.2500 kg/ha): 9.0 | Postemergence herbicidal rating CASOB ([9]; Rate 0.0156 kg/ha): 0.0 | Postemergence herbicidal rating CASOB ([9]; Rate 0.0313 kg/ha): 0.0 | Postemergence herbicidal rating CASOB ([9]; Rate 0.0625 kg/ha): 2.0 | Postemergence herbicidal rating CASOB ([9]; Rate 0.1250 kg/ha): 2.0 | Herbicidal rating CYPSE ([10]; 0.0313 kg/ha): 0.0 | Herbicidal rating CYPSE ([10]; 0.0625 kg/ha): 0.0 | Herbicidal rating CYPSE ([10]; 0.1250 kg/ha): 0.0 | Herbicidal rating CYPSE ([10]; 0.2500 kg/ha): 0.0 | Postemergence herbicidal rating CHEAL ([11]; Rate 0.0156 kg/ha): 1.0 | Postemergence herbicidal rating CHEAL ([11]; Rate 0.0313 kg/ha): 4.0 | Postemergence herbicidal rating CHEAL ([11]; Rate 0.0625 kg/ha): 5.0 | Postemergence herbicidal rating CHEAL ([11]; Rate 0.1250 kg/ha): 9.0 | Preemergence herbicidal rating AMBEL ([12]; rate 0.0156 kg/ha): 0.0 | Preemergence herbicidal rating AMBEL ([12]; rate 0.0313 kg/ha): 0.0 | Preemergence herbicidal rating AMBEL ([12]; rate 0.0625 kg/ha): 0.0 | Preemergence herbicidal rating AMBEL ([12]; rate 0.1250 kg/ha): 0.0 | Preemergence herbicidal rating AMBEL ([12]; rate 0.2500 kg/ha): 2.0 | Preemergence herbicidal rating AMBEL ([12]; rate 0.5000 kg/ha): 4.0 | Preemergence herbicidal rating SETVI ([13]; rate 0.0156 kg/ha): 0.0 | Preemergence herbicidal rating SETVI ([13]; rate 0.0313 kg/ha): 0.0 | Preemergence herbicidal rating SETVI ([13]; rate 0.0625 kg/ha): 0.0 | Preemergence herbicidal rating SETVI ([13]; rate 0.1250 kg/ha): 0.0 | Preemergence herbicidal rating SETVI ([13]; rate 0.2500 kg/ha): 0.0 | Preemergence herbicidal rating SETVI ([13]; rate 0.5000 kg/ha): 0.0

— patent US20020137929A1, “1 - (3-heterocyclylphenyl) isothiourea, -isourea, -guanidine and -amidine herbicidal agents” (Intellectual Property Department, BASF Aktiengesellschaft, priority 1998, published 2002)
